Read-outs that look alike come from different tables or passages of the source.
Columns and labels:
MV4;11 cells = experiment: Cell viability assay (CellTiter-Glo) in MV4;11 cells, alone or with gilteritinib; format: cell-based; settings: Homo sapiens, MV4-11, 72 h, MV4;11 cells, three days, CellTiter-Glo, read-out: MV4
MOLM-13 cells = experiment: Cell viability assay (CellTiter-Glo) in MOLM-13 cells, alone or with gilteritinib; format: cell-based; settings: Homo sapiens, MOLM-13, 72 h, MOLM-13 cells, three days, CellTiter-Glo
[1] = compound alone (without gilteritinib), 11 IC50
[2] = with gilteritinib 10 nM, 11 IC50 gilteritinib
[3] = compound alone (without gilteritinib), read-out: MOLM-13 IC50
[4] = with gilteritinib 20 nM, read-out: MOLM-13 IC50 gilteritinib

Structure (SMILES) | IC50 (MV4;11 cells; [1]) | IC50 (MV4;11 cells; [2]) | IC50 (MOLM-13 cells; [3]) | IC50 (MOLM-13 cells; [4])
O=C1CCC(N2C(=O)c3ccc(NCCC[C@H]4C[C@H](n5cc(-c6cnc7ccc(C8CCOCC8)cc7n6)cn5)C4)cc3C2=O)C(=O)N1 (stereo partly drawn) [GS-181, 2-(2,6-Dioxopiperidin-3-yl)-5-((3-(trans-3-(4-(7-(tetrahydro-2H-pyran-4-yl)quinoxalin-2-yl)-1H-pyrazol-1-yl)cyclobutyl)propyl)amino)isoindoline-1,3-dione] | 10 to 100 nM | < 10 nM | 10 to 100 nM | < 10 nM
O=C1CCC(N2C(=O)c3ccc(NCCC[C@H]4C[C@@H](n5cc(-c6cnc7ccc(C8CCOCC8)cc7n6)cn5)C4)cc3C2=O)C(=O)N1 (stereo partly drawn) [GS-182, 2-(2,6-Dioxopiperidin-3-yl)-5-((3-(cis-3-(4-(7-(tetrahydro-2H-pyran-4-yl)quinoxalin-2-yl)-1H-pyrazol-1-yl)cyclobutyl)propyl)amino)isoindoline-1,3-dione] | 100 to 1000 nM | 10 to 100 nM | 100 to 1000 nM | < 10 nM
O=C1CCC(N2C(=O)c3ccc(NC4CCC(CCn5cc(-c6cnc7ccccc7n6)cn5)CC4)cc3C2=O)C(=O)N1 (stereo not drawn) [GS-183, 2-(2,6-Dioxopiperidin-3-yl)-5-((4-(2-(4-(quinoxalin-2-yl)-1H-pyrazol-1-yl)ethyl)cyclohexyl)amino)isoindoline-1,3-dione] | 100 to 1000 nM | 100 to 1000 nM | > 1000 nM | 100 to 1000 nM
O=C1CCC(N2C(=O)c3ccc(NC4CCC(CCCn5cc(-c6cnc7ccccc7n6)cn5)CC4)cc3C2=O)C(=O)N1 (stereo not drawn) [GS-184, 2-(2,6-Dioxopiperidin-3-yl)-5-((4-(3-(4-(quinoxalin-2-yl)-1H-pyrazol-1-yl)propyl)cyclohexyl)amino)isoindoline-1,3-dione] | 100 to 1000 nM | > 1000 nM | > 1000 nM | 100 to 1000 nM
CN1CCN(c2ccc3ncc(-c4cnn([C@H]5C[C@H](CNc6ccc7c(c6)C(=O)N(C6CCC(=O)NC6=O)C7=O)C5)c4)nc3c2)CC1 (stereo partly drawn) [GS-185, 2-(2,6-Dioxopiperidin-3-yl)-5-(((trans-3-(4-(7-(4-methylpiperazin-1-yl)quinoxalin-2-yl)-1H-pyrazol-1-yl)cyclobutyl)methyl)amino)isoindoline-1,3-dione] | 100 to 1000 nM | 10 to 100 nM | 100 to 1000 nM | 10 to 100 nM
O=C1CCC(N2C(=O)c3ccc(NC[C@H]4C[C@@H](n5cc(-c6cnc7ccc(N8CCNCC8)cc7n6)cn5)C4)cc3C2=O)C(=O)N1 (stereo partly drawn) [GS-186, 2-(2,6-Dioxopiperidin-3-yl)-5-(((cis-3-(4-(7-(piperazin-1-yl)quinoxalin-2-yl)-1H-pyrazol-1-yl)cyclobutyl)methyl)amino)isoindoline-1,3-dione] | > 1000 nM | > 1000 nM | > 1000 nM | 100 to 1000 nM
O=C1CCC(N2C(=O)c3ccc(NC[C@H]4C[C@H](n5cc(-c6cnc7ccc(N8CCNCC8)cc7n6)cn5)C4)cc3C2=O)C(=O)N1 (stereo partly drawn) [GS-187, 2-(2,6-Dioxopiperidin-3-yl)-5-(((trans-3-(4-(7-(piperazin-1-yl)quinoxalin-2-yl)-1H-pyrazol-1-yl)cyclobutyl)methyl)amino)isoindoline-1,3-dione] | > 1000 nM | > 1000 nM | > 1000 nM | > 1000 nM
O=C1CCC(N2C(=O)c3ccc(NCCC[C@H]4C[C@H](n5cc(-c6cnc7ccc(N8CCOCC8)cc7n6)cn5)C4)cc3C2=O)C(=O)N1 (stereo partly drawn) [GS-188, 2-(2,6-Dioxopiperidin-3-yl)-5-((3-(trans-3-(4-(7-morpholinoquinoxalin-2-yl)-1H-pyrazol-1-yl)cyclobutyl)propyl)amino)isoindoline-1,3-dione] | 10 to 100 nM | < 10 nM | 10 to 100 nM | < 10 nM
O=C1CCC(N2C(=O)c3ccc(NC[C@H]4C[C@@H](n5cc(-c6cnc7ccc(N8CCOCC8)cc7n6)cn5)C4)cc3C2=O)C(=O)N1 (stereo partly drawn) [GS-189, 2-(2,6-Dioxopiperidin-3-yl)-5-(((cis-3-(4-(7-morpholinoquinoxalin-2-yl)-1H-pyrazol-1-yl)cyclobutyl)methyl)amino)isoindoline-1,3-dione] | 100 to 1000 nM | > 1000 nM | 100 to 1000 nM | 100 to 1000 nM
CN1CCN(c2ccc3ncc(-c4cnn([C@H]5C[C@@H](CNc6ccc7c(c6)C(=O)N(C6CCC(=O)NC6=O)C7=O)C5)c4)nc3c2)CC1 (stereo partly drawn) [GS-190, 2-(2,6-Dioxopiperidin-3-yl)-5-(((cis-3-(4-(7-(4-methylpiperazin-1-yl)quinoxalin-2-yl)-1H-pyrazol-1-yl)cyclobutyl)methyl)amino)isoindoline-1,3-dione] | > 1000 nM | > 1000 nM | > 1000 nM | 100 to 1000 nM
O=C1CCC(N2C(=O)c3ccc(NC[C@H]4C[C@H](n5cc(-c6cnc7ccc(N8CCOCC8)cc7n6)cn5)C4)cc3C2=O)C(=O)N1 (stereo partly drawn) [GS-191, 2-(2,6-Dioxopiperidin-3-yl)-5-(((trans-3-(4-(7-morpholinoquinoxalin-2-yl)-1H-pyrazol-1-yl)cyclobutyl)methyl)amino)isoindoline-1,3-dione] | 10 to 100 nM | < 10 nM | 10 to 100 nM | < 10 nM
O=C1CCC(N2C(=O)c3ccc(NCC4CC(C(=O)N5CCC(n6cc(-c7cnc8ccccc8n7)cn6)CC5)C4)cc3C2=O)C(=O)N1 (stereo not drawn) [GS-192, 2-(2,6-Dioxopiperidin-3-yl)-5-(((3-(4-(4-(quinoxalin-2-yl)-1H-pyrazol-1-yl)piperidine-1-carbonyl)cyclobutyl)methyl)amino)isoindoline-1,3-dione] | 100 to 1000 nM | 10 to 100 nM | > 1000 nM | 10 to 100 nM
O=C1CCC(N2C(=O)c3ccc(NC[C@H]4C[C@@H](n5cc(-c6cnc7ccc(C8CCOCC8)cc7n6)cn5)C4)cc3C2=O)C(=O)N1 (stereo partly drawn) [GS-193, 2-(2,6-Dioxopiperidin-3-yl)-5-(((cis-3-(4-(7-(tetrahydro-2H-pyran-4-yl)quinoxalin-2-yl)-1H-pyrazol-1-yl)cyclobutyl)methyl)amino)isoindoline-1,3-dione] | > 1000 nM | 100 to 1000 nM | 100 to 1000 nM | 100 to 1000 nM

Continued, values first:

IC50 (MV4;11 cells; [1]) | IC50 (MV4;11 cells; [2]) | IC50 (MOLM-13 cells; [3]) | IC50 (MOLM-13 cells; [4]) | Structure (SMILES)
10 to 100 nM | < 10 nM | 100 to 1000 nM | < 10 nM | O=C1CCC(N2C(=O)c3ccc(NCCC45CC(C(=O)N6CCC(n7cc(-c8cnc9ccccc9n8)cn7)CC6)(C4)C5)cc3C2=O)C(=O)N1 (stereo not drawn) [GS-194, 2-(2,6-Dioxopiperidin-3-yl)-5-((2-(3-(4-(4-(quinoxalin-2-yl)-1H-pyrazol-1-yl)piperidine-1-carbonyl)bicyclo[1.1.1]pentan-1-yl)ethyl)amino)isoindoline-1,3-dione]
100 to 1000 nM | < 10 nM | 100 to 1000 nM | < 10 nM | O=C1CCC(N2C(=O)c3ccc(NCCC[C@H]4C[C@H](n5cc(-c6cnc7ccc(N8CCNCC8)cc7n6)cn5)C4)cc3C2=O)C(=O)N1 (stereo partly drawn) [GS-195, 2-(2,6-Dioxopiperidin-3-yl)-5-((3-(trans-3-(4-(7-(piperazin-1-yl)quinoxalin-2-yl)-1H-pyrazol-1-yl)cyclobutyl)propyl)amino)isoindoline-1,3-dione]
10 to 100 nM | < 10 nM | 10 to 100 nM | < 10 nM | O=C1CCC(N2C(=O)c3ccc(NCCC[C@H]4C[C@H](n5cc(-c6cnc7ccc(NC8CCNCC8)cc7n6)cn5)C4)cc3C2=O)C(=O)N1 (stereo partly drawn) [GS-196, 2-(2,6-Dioxopiperidin-3-yl)-5-((3-(trans-3-(4-(7-(piperidin-4-ylamino)quinoxalin-2-yl)-1H-pyrazol-1-yl)cyclobutyl)propyl)amino)isoindoline-1,3-dione]
10 to 100 nM | 10 to 100 nM | 100 to 1000 nM | 10 to 100 nM | N#Cc1cccc2ncc(-c3cnn([C@H]4C[C@H](CCCNc5ccc6c(c5)C(=O)N(C5CCC(=O)NC5=O)C6=O)C4)c3)nc12 (stereo partly drawn) [GS-197, 3-(1-(trans-3-(3-((2-(2,6-Dioxopiperidin-3-yl)-1,3-dioxoisoindolin-5-yl)amino)propyl)cyclobutyl)-1H-pyrazol-4-yl)quinoxaline-5-carbonitrile]
10 to 100 nM | 10 to 100 nM | 100 to 1000 nM | < 10 nM | N#Cc1ccc2ncc(-c3cnn([C@H]4C[C@H](CCCNc5ccc6c(c5)C(=O)N(C5CCC(=O)NC5=O)C6=O)C4)c3)nc2c1 (stereo partly drawn) [GS-198, 3-(1-(trans-3-(3-((2-(2,6-Dioxopiperidin-3-yl)-1,3-dioxoisoindolin-5-yl)amino)propyl)cyclobutyl)-1H-pyrazol-4-yl)quinoxaline-6-carbonitrile]
10 to 100 nM | < 10 nM | 100 to 1000 nM | < 10 nM | O=C1CCC(N2C(=O)c3ccc(NCCC[C@H]4C[C@H](n5cc(-c6cnc7ccc(C8CCNCC8)cc7n6)cn5)C4)cc3C2=O)C(=O)N1 (stereo partly drawn) [GS-199, 2-(2,6-Dioxopiperidin-3-yl)-5-((3-(trans-3-(4-(7-(piperidin-4-yl)quinoxalin-2-yl)-1H-pyrazol-1-yl)cyclobutyl)propyl)amino)isoindoline-1,3-dione]
100 to 1000 nM | 10 to 100 nM | 100 to 1000 nM | 10 to 100 nM | Cc1nn([C@H]2C[C@H](CNc3ccc4c(c3)C(=O)N(C3CCC(=O)NC3=O)C4=O)C2)cc1-c1cnc2ccccc2n1 (stereo partly drawn) [GS-200, 2-(2,6-Dioxopiperidin-3-yl)-5-(((trans-3-(3-methyl-4-(quinoxalin-2-yl)-1H-pyrazol-1-yl)cyclobutyl)methyl)amino)isoindoline-1,3-dione]
100 to 1000 nM | 10 to 100 nM | 100 to 1000 nM | 10 to 100 nM | O=C1CCC(N2C(=O)c3ccc(NCCC[C@H]4C[C@H](n5cc(-c6cnc7ccc(F)cc7n6)cn5)C4)cc3C2=O)C(=O)N1 (stereo partly drawn) [GS-201, 2-(2,6-Dioxopiperidin-3-yl)-5-((3-(trans-3-(4-(7-fluoroquinoxalin-2-yl)-1H-pyrazol-1-yl)cyclobutyl)propyl)amino)isoindoline-1,3-dione]

Reference: patent US20240050428A1 (Cullgen (Shanghai), Inc., priority 2020, published 2024)
